Assay [1] has as its system PPARγ phosphorylation at S273. It counts as cell-based, mouse. As to conditions: 3T3-L1 differentiated adipocytes, in the presence of TNFα, compounds at 10 μM, Western blot with pSer273-specific antibody. A general note: In western blotting, separated proteins are transferred to a membrane and probed.
Assay [2] addresses T1, GST-tagged PPARγ ligand-binding domain (PPARγ LBD) (Homo sapiens, UniProt P37231).
T1 sequence (P37231 238-503 limits assumed): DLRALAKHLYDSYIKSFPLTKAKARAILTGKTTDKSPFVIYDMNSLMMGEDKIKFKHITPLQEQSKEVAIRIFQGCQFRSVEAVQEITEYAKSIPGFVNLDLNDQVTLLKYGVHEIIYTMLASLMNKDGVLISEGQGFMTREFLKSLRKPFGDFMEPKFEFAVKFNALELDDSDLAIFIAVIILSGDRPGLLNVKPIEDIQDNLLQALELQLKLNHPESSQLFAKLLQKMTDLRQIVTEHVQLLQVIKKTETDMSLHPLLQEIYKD
As to the kind of experiment: In vitro competition binding assay.

The target of assay [3] is T1, GST-tagged PPARγ ligand-binding domain (PPARγ LBD). As to the kind of experiment: biochemical.
A further assay concerns 3T3-L1 cells. The experiment in a line: Oil Red O staining of 3T3-L1 adipocyte differentiation. It counts as cell-based, mouse. As to conditions: 3T3-L1 in differentiation media, compounds at 10 μM.

pIC50, pKi: −log10 of the molar value.

The values that follow come from paper PMC7243741 (Bioorganic & medicinal chemistry letters, 2019).

For `COc1cc(CNC(=O)c2ccc3c(c2)c(C)c(C)n3Cc2ccc(-c3ccccc3C(=O)O)cc2)ccc1O` [Compound 2e, 4’-((5-((4-Hydroxy-3-methoxybenzyl)carbamoyl)-2,3-dimethyl-1H-indol-1-yl)methyl)-[1,1’-biphenyl]-2-carboxylic acid], in assay [1], the “Inhibition of PPARγ S273 phosphorylation” value was “significantly inhibited”. Also, in assay [2] (ratio of IC50 vs UHC1), the “fold improvement in PPARγ binding potency compared to parental compound UHC1” value was “over 30 fold”.
As for `Cc1cc(C(=O)NCc2cccc(O)c2)ccc1NCc1ccc(-c2ccccc2C(=O)O)cc1` [Compound 5, 4’-(((4-((3-Hydroxybenzyl)carbamoyl)-2-methylphenyl)amino)methyl)-[1,1’-biphenyl]-2-carboxylic acid], the pKi in assay [3] was 6.60. The compound also showed a negative logarithm of the IC50 (pIC50) in assay [2] of 6.49.
On to `Cc1c(C)n(Cc2ccc(-c3ccccc3C(=O)O)cc2)c2ccc(C(=O)NCc3cccnc3)cc12` [UHC1, reference compound], for which the “Inhibition of PPARγ S273 phosphorylation” value in assay [1] is “significantly inhibited”. In addition, the “Adipocyte differentiation (Oil Red O staining of lipid droplets)” value with 3T3-L1 cells was “significantly reduced Oil Red O staining”.

As a reminder, the pKi is −log10 of the Ki, conventionally taken in molar units. Lower therefore signals a high Ki. As usually defined, the pIC50 is the negative decadic logarithm of the IC50, by convention in mol/L.
